The text below walks through data of article PMC4380750 (Bioorganic & medicinal chemistry, 2015).

The structures appear in SMILES notation.

The target of data set [1] is T1, MOR (Mus musculus, UniProt P42866). As to the kind of experiment: biochemical. To be noted: for Emax: read-out: MOR [35S]GTPγS Binding %Emax of DAMGO; for less potent than naltrexone in the MOR [35S]GTPγS binding assay: EC50 compared with naltrexone.
The test system of data set [2] is KOR. To be noted: electrically stimulated guinea pig ileal longitudinal muscle; cited from earlier work.
The target of data set [3] is T2, DOR (Mus musculus, UniProt P32300). Briefly: Radioligand competition binding assay, [3H]naltrindole, mDOR-CHO cell membranes. The note with it: ratio of Ki values, MOR vs DOR.
T2 sequence (P32300 whole entry): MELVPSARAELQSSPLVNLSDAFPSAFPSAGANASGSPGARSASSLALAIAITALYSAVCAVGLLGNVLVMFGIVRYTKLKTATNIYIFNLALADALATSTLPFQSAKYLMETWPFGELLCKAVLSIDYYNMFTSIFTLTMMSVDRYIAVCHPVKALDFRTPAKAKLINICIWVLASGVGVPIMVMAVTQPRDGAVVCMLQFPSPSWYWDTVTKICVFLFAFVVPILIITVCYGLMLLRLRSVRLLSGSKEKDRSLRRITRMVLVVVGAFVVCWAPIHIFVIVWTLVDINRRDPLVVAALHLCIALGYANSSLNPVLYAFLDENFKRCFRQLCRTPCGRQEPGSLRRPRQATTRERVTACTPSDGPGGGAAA
Data set [4] relates to Swiss-Webster mice. Briefly: Opioid withdrawal assays in chronic morphine-pelleted mice. Type of data set: in vivo, mouse.
Another data set has as its target hMOR (Homo sapiens, UniProt P35372). Briefly: Ca2+ flux assay in Gαqi5 transfected hMOR-CHO cells. The format is cell-based. The note with it: for agonism, increase of intracellular Ca2+ level: agonism study, compared to DAMGO.
In data set [5] the target is KOR (Mus musculus, UniProt P33534). As to the kind of experiment: KOR [35S]GTPγS binding functional assay. Type of data set: biochemical.
Sequence of KOR (Mus musculus, UniProt P33534) (P33534 whole entry): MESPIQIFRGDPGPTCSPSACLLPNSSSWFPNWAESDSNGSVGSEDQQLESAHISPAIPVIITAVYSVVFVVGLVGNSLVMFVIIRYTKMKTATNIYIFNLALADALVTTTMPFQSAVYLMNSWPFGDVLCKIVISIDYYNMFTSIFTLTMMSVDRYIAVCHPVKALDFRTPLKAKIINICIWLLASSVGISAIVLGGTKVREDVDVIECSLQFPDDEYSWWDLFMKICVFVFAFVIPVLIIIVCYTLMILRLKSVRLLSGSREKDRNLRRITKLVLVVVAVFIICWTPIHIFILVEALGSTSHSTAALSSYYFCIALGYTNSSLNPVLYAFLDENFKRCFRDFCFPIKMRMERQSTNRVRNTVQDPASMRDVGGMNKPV
Data set [6] deals with T2, DOR. As to the kind of experiment: DOR [35S]GTPγS binding functional assay. Type of data set: biochemical. The note with it: vs naltrexone.
For data set [7], the system named is Swiss-Webster mice. As to the kind of experiment: Warm-water tail immersion assay, agonism study. Type of data set: in vivo, mouse.
Data set [8] has as its target T1, MOR. The format is binding.
The subject of data set [9] is KOR. The note with it: binding affinity; cited from earlier work.
Setting [10] is: 1 mg/kg s.c., morphine-pelleted mice, counted over 20 min.

T1 sequence (P42866 whole entry): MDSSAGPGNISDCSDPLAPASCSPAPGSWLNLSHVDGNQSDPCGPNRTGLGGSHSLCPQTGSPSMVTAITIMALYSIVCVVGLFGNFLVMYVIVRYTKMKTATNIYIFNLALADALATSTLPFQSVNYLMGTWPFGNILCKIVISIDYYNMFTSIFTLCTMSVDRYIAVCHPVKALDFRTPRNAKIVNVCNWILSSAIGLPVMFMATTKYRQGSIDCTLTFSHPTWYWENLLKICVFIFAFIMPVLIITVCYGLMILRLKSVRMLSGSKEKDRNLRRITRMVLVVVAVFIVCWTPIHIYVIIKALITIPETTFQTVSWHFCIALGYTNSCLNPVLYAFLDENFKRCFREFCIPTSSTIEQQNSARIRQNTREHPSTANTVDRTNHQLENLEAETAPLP
Sequence of hMOR (P35372 whole entry): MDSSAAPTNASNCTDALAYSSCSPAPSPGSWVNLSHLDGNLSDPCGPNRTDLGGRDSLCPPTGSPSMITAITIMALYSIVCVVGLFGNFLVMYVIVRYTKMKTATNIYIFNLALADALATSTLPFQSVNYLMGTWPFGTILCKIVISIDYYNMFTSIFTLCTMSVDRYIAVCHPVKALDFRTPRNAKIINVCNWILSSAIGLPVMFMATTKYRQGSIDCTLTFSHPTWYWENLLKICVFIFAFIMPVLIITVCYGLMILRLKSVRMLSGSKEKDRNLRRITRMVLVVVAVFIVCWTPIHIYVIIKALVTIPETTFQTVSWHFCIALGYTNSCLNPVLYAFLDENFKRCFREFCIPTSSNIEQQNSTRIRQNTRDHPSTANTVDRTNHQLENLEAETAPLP

Take `CN1Cc2ccccc2C[C@H]1C(=O)N[C@H]1CC[C@@]2(O)[C@H]3Cc4ccc(O)c5c4[C@@]2(CCN3CC2CC2)[C@H]1O5` [Compound 15, 17-Cyclopropylmethyl-3,14β-dihydroxy-4,5α-epoxy-6α-[(S)-(2-methyl-1,2,3,4-tetrahydroisoquinoline-3-carboxamido)]morphinan]: on MOR [1], the maximal response (Emax) is 24.8 ± 1.3%. For `O=C(CCc1cc2ccccc2cn1)N[C@H]1CC[C@@]2(O)[C@H]3Cc4ccc(O)c5c4[C@@]2(CCN3CC2CC2)[C@H]1O5` [Compound 2, 17-Cyclopropylmethyl-3,14β-dihydroxy-4,5α-epoxy-6α-[3-(isoquinolin-3-yl)propanamido)morphinan], at MOR [1], the Emax amounted to 27.4 ± 0.35%.

As to `O=C(N[C@H]1CC[C@@]2(O)[C@H]3Cc4ccc(O)c5c4[C@@]2(CCN3CC2CC2)[C@H]1O5)c1ncc2ccccc2n1` [Compound 7, 17-Cyclopropylmethyl-3,14β-dihydroxy-4,5α-epoxy-6α-(4-quinazoline-2-carboxamido)morphinan], the Emax on MOR [1] came out at 21.6 ± 0.8%. Consider `O=C(CNC(=O)c1cc2ccccc2cn1)N[C@H]1CC[C@@]2(O)[C@H]3Cc4ccc(O)c5c4[C@@]2(CCN3CC2CC2)[C@H]1O5` [Compound 3, 17-Cyclopropylmethyl-3,14β-dihydroxy-4,5α-epoxy-6α-[2-(isoquinoline-3-carboxamido)acetamido}morphinan], for which the Emax at MOR [1] was less than 15%. The same measure, in the same setting: under `O=C(Cc1cc2ccccc2cn1)N[C@H]1CC[C@@]2(O)[C@H]3Cc4ccc(O)c5c4[C@@]2(CCN3CC2CC2)[C@H]1O5` [Compound 1, 17-Cyclopropylmethyl-3,14β-dihydroxy-4,5α-epoxy-6α-[2-(isoquinolin-3-yl)acetamido)morphinan] stands 18.6 ± 1.1%; under `N#Cc1nc(C(=O)N[C@H]2CC[C@@]3(O)[C@H]4Cc5ccc(O)c6c5[C@@]3(CCN4CC3CC3)[C@H]2O6)cc2ccccc12` [Compound 9, 17-Cyclopropylmethyl-3,14β-dihydroxy-4,5α-epoxy-6α-(1-cyanoisoquinoline-3-carboxamido)morphinan], 37.5 ± 0.7%. `NC(N)=Nc1ccc2c3c([nH]c2c1)[C@@H]1Oc2c(O)ccc4c2[C@@]12CCN(CC1CC1)[C@H](C4)[C@]2(O)C3` [6’-GNTI]: the “functional activity at KOR” value with KOR [2] is given as “KOR full agonist”. Turning to `O=C(N[C@H]1CC[C@@]2(O)[C@H]3Cc4ccc(O)c5c4[C@@]2(CCN3CC2CC2)[C@H]1O5)c1nc(Cl)c2ccccc2c1O` [Compound 5, 17-Cyclopropylmethyl-3,14β-dihydroxy-4,5α-epoxy-6α-(1-chloro-4-hydroxyisoquinoline-3-carboxamido)morphinan], at DOR [3], the “Selectivity δ/µ” value is reported as greater than 15. Moreover, the Emax at MOR [1] is 19.8 ± 0.8%. With `O=C(N[C@H]1CC[C@@]2(O)[C@H]3Cc4ccc(O)c5c4[C@@]2(CCN3CC2CC2)[C@H]1O5)c1ncc2ccccc2c1O` [Compound 6, 17-Cyclopropylmethyl-3,14β-dihydroxy-4,5α-epoxy-6α-(4-hydroxyisoquinoline-3-carboxamido)morphinan], the Emax on MOR [1] was 20.5 ± 0.9%. In the case of `O=C(N[C@H]1CC[C@@]2(O)[C@H]3Cc4ccc(O)c5c4[C@@]2(CCN3CC2CC2)[C@H]1O5)c1cc2cc([N+](=O)[O-])ccc2cn1` [Compound 11, 17-Cyclopropylmethyl-3,14β-dihydroxy-4,5α-epoxy-6α-(6-nitroisoquinoline-3-carboxamido)morphinan], in the data set with Swiss-Webster mice [4] (30 mg/kg s.c., placebo-pelleted mice), the “withdrawal symptoms in placebo-pelleted mice” value is reported as “did not induce any significant withdrawal symptoms”. In addition, the “escape jumps in morphine-pelleted mice, dose dependence” value in the data set on Swiss-Webster mice [4] (s.c., doses up to 100 mg/kg, plateau at 100 mg/kg) was “did not precipitate significant jumps in morphine-pelleted mice until 30 mg/kg”. In the data set with Swiss-Webster mice [4] (s.c., doses up to 100 mg/kg, vs naltrexone 1 mg/kg), the “wet-dog shakes in morphine-pelleted mice compared to naltrexone” value is given as “significantly less wet-dog shakes”. Further, the “agonism, increase of intracellular Ca2+ level” value at hMOR is listed as “no apparent agonism”. In addition, on KOR [5] (vs NAQ), the “KOR [35S]GTPγS potency, lower than that of NAQ” value is recorded as roughly 6 fold. For the same compound, the “KOR [35S]GTPγS potency, less potent than naltrexone” value at KOR [5] (vs naltrexone) is listed as roughly 80 fold. The “less potent than naltrexone in the MOR [35S]GTPγS binding assay” value (“less potent than naltrexone in the MOR” below) on MOR [1] is no less than 200 fold. The “DOR [35S]GTPγS potency, less potent compared to naltrexone” value (“DOR … compared to naltrexone” below) on DOR [6] is reported as 7- to 25 fold. Take `COc1c(C(=O)N[C@H]2CC[C@@]3(O)[C@H]4Cc5ccc(O)c6c5[C@@]3(CCN4CC3CC3)[C@H]2O6)nc(Cl)c2ccccc12` [Compound 4, 17-Cyclopropylmethyl-3,14β-dihydroxy-4,5α-epoxy-6α-(1-chloro-4-methoxyisoquinoline-3-carboxamido)morphinan]: the “% MPE, intrinsic antinociceptive effect” value with Swiss-Webster mice [7] (10 mg/kg s.c., 20 min after injection, mice, 56 °C) is on record as “full agonist”. For the same compound, the “difference between the potencies of 4 and morphine in the tail immersion assay” value in the data set on Swiss-Webster mice [7] (vs morphine) is on record as roughly 9 fold. For the same compound, the “agonism, increase of intracellular Ca2+ level” value at hMOR is reported as “did not show any significant agonist activity”. Further, the “higher potency of 4 to 11 in Ca2+ flux antagonism study” value at hMOR (vs compound 11) is recorded as 100 fold. Moreover, the Emax on KOR [5] (read-out: KOR [35S]GTPγS Binding % Emax of U50,488) is 7.1 ± 0.5%. For the same compound, the “difference between the potencies of 4 and morphine in the MOR [35S]GTPγS binding assay” value at MOR [1] is listed as roughly 70 fold. Further, the “4 more potent than 11 in the radioligand competition binding assay” value on MOR [8] was “about 10 fold”. The “DOR … compared to naltrexone” value on DOR [6] is recorded as 7- to 25 fold.

In the data set with Swiss-Webster mice [4] (setting [10]), `O=C1CC[C@@]2(O)[C@H]3Cc4ccc(O)c5c4[C@@]2(CCN3CC2CC2)[C@H]1O5` [NTX, naltrexone, reference compound] gave an escape jumps of 30.0 ± 12.1 times and a wet-dog shakes of 14.8 ± 2.2 times. Consider `Cc1nc(C(=O)N[C@H]2CC[C@@]3(O)[C@H]4Cc5ccc(O)c6c5[C@@]3(CCN4CC3CC3)[C@H]2O6)cc2ccccc12` [Compound 10, 17-Cyclopropylmethyl-3,14β-dihydroxy-4,5α-epoxy-6α-(1-methylisoquinolin-3-carboxamido)morphinan], for which, on MOR [1], the Emax worked out at 22.2 ± 0.4%.

For the compound `COc1cc2cnc(C(=O)N[C@H]3CC[C@@]4(O)[C@H]5Cc6ccc(O)c7c6[C@@]4(CCN5CC4CC4)[C@H]3O7)cc2cc1OC` [Compound 14, 17-Cyclopropylmethyl-3,14β-dihydroxy-4,5α-epoxy-6α-(6,7-dimethoxyisoquinoline-3-carboxamido)morphinan], the “less potent than naltrexone in the MOR” value at MOR [1] is recorded as no less than 200 fold.

In the case of `O=C(N[C@H]1CC[C@@]2(O)[C@H]3Cc4ccc(O)c5c4[C@@]2(CCN3CC2CC2)[C@H]1O5)c1cc2ccc([N+](=O)[O-])cc2cn1` [Compound 12, 17-Cyclopropylmethyl-3,14β-dihydroxy-4,5α-epoxy-6α-(7-nitroisoquinoline-3-carboxamido)morphinan], the “less potent than naltrexone in the MOR” value at MOR [1] is on record as no less than 200 fold. As for `O=C(N[C@H]1CC[C@@]2(O)[C@H]3Cc4ccc(O)c5c4[C@@]2(CCN3CC2CC2)[C@H]1O5)c1cc2ccccc2cn1` [NAQ, 17-cyclopropylmethyl-3,14β-dihydroxy-4,5α-epoxy-6α-(isoquinoline-3′-carboxamido)morphinan, reference compound], the “DOR … compared to naltrexone” value on DOR [6] is given as 7- to 25 fold. `NC(N)=Nc1ccc2[nH]c3c(c2c1)C[C@@]1(O)[C@H]2Cc4ccc(O)c5c4[C@@]1(CCN2CC1CC1)[C@H]3O5` [5’-GNTI, 5’-guanidinonaltrindole]: the “functional activity at KOR” value with KOR [2] is recorded as “KOR antagonist”. Further, the “5’-GNTI more potent than 6’-GNTI at the KOR” value in the data set with KOR [9] is 8 fold. On to `CN(C)c1ccc2cc(C(=O)N[C@H]3CC[C@@]4(O)[C@H]5Cc6ccc(O)c7c6[C@@]4(CCN5CC4CC4)[C@H]3O7)ncc2c1` [Compound 13, 17-Cyclopropylmethyl-3,14β-dihydroxy-4,5α-epoxy-6α-(7-dimethylaminoisoquinoline-3-carboxamido)morphinan], for which, on DOR [3], the “Selectivity δ/µ” value is reported as greater than 15.
